Each compound was assayed on HDAC (assay: HDAC fluorimetric assay (HDAC enzymatic activity, HeLa nuclear extract)). Settings: HeLa nuclear extract; read-out: HDAC IC50 grading.
Assay type: biochemical
Description: HDAC inhibitors were screened using an HDAC fluorimetric assay kit (AK-500, Biomol, Plymouth Meeting, Pa.).
Each assay was setup as follows: Defrosted all kit components and kept on ice until use. […] Prepared dilutions of Trichostatin A (TSA, positive control) and tested compounds in assay buffer (5× of final concentration). Diluted Fluor de Lys™ Substrate in assay buffer to 100 uM (50 fold=2× final). Diluted Fluor de Lys™ developer concentrate 20-fold (e.g. 50 μl plus 950 μl Assay Buffer) in cold assay buffer. Second, diluted the 0.2 mM Trichostatin A 100-fold in the 1× Developer (e.g. 10 μl in 1 ml; final Trichostatin A concentration in the 1× Developer=2 μM; final concentration after addition to HDAC/Substrate reaction=1 μM). Added Assay buffer, diluted trichostatin A or test inhibitor to appropriate wells of the microtiter plate. Added diluted HeLa extract or other HDAC sample to all wells except for negative controls.

| IC50 | Compound |
| --- | --- |
| < 0.1 µM | C#Cc1cccc(CNc2ncnc3cc(OC)c(OCCCCCCC(=O)NO)cc23)c1 [Compound 90, 7-(4-(3-ethynylbenzylamino)-7-methoxyquinazolin-6-yloxy)-N-hydroxyheptanamide] |
| 0.1 to 1 µM | COc1cc2ncnc(Nc3ccc(F)c(Cl)c3)c2cc1OCCNCc1ccc(C(=O)NO)cc1 [Compound 107] |
| 0.1 to 1 µM | COc1cc2ncnc(Nc3ccc(F)c(Cl)c3)c2cc1CCCCC(=O)NO [Compound 144, 5-(4-(3-chloro-4-fluorophenylamino)-7-methoxyquinazolin-6-yl)-N-hydroxypentanamide] |
| > 10 µM | COc1cc2ncnc(Nc3ccc(F)c(Cl)c3)c2cc1OCCCCCCN(O)C(C)=O [Compound 103, N-(6-(4-(3-chloro-4-fluorophenylamino)-7-methoxyquinazolin-6-yloxy)hexyl)-N-hydroxyacetamide] |
| > 10 µM | O=C(COc1ccc2ncnc(Nc3ccc(F)c(Cl)c3)c2c1)NO [Compound 13, 2-(4-(3-chloro-4-fluorophenylamino)quinazolin-6-yloxy)-N-hydroxyacetamide] |
| 0.1 to 1 µM | COCCOc1cc2ncnc(Nc3ccc(F)c(Cl)c3)c2cc1NC(=O)CCCCC(=O)NO [Compound 69, N^1-(4-(3-chloro-4-fluorophenylamino)-7-(2-methoxyethoxy)quinazolin-6-yl)-N^6-hydroxyadipamide] |
| 0.1 to 1 µM | COc1cc2ncnc(Nc3ccc(F)c(Cl)c3)c2cc1-c1ccc(C#CCCCC(=O)NO)o1 [Compound 125] |
| > 10 µM | COc1cc2ncnc(Nc3ccc(F)c(Cl)c3)c2cc1OCC(=O)NO [Compound 1, 2-(4-(3-Chloro-4-fluorophenylamino)-7-methoxyquinazolin-6-yloxy)-N-hydroxyacetamide] |
| < 0.1 µM | C#Cc1cccc(Nc2ncnc3ccc(OCCCCC(=O)NO)cc23)c1 [Compound 22] |
| 0.1 to 1 µM | C[C@@H](Nc1ncnc2ccc(OCCCCCC(=O)NO)cc12)c1ccccc1 [Compound 50] |
| > 10 µM | COc1cc2ncnc(Nc3ccc(F)c(Cl)c3)c2cc1OCCCC(=O)NO [Compound 3, 4-(4-(3-Chloro-4-fluorophenylamino)-7-methoxyquinazolin-6-yloxy)-N-hydroxybutanamide] |
| < 0.1 µM | COc1cc2ncnc(NCCc3ccccc3)c2cc1OCCCCCCC(=O)NO [Compound 84] |
| 1 to 10 µM | COc1cc2ncnc(Nc3ccc(F)c(Cl)c3)c2cc1Oc1ccc(C#CCCCC(=O)NO)cc1 [Compound 205] |
| > 10 µM | COc1cc2ncnc(Nc3ccc(F)c(Cl)c3)c2cc1OCCC(=O)NO [Compound 2] |
| 1 to 10 µM | COc1cc2ncnc(Nc3ccc(F)c(Cl)c3)c2cc1OCCN(CCO)CCCC(=O)NO [Compound 118] |
| < 0.1 µM | COc1cc2ncnc(N[C@@H](C)c3ccccc3)c2cc1OCCCCCCC(=O)NO [Compound 80, (S)—N-hydroxy-7-(7-methoxy-4-(1-phenylethylamino)quinazolin-6-yloxy)heptanamide] |
| < 0.1 µM | C[C@@H](Nc1ncnc2ccc(OCCCCCC(=O)NO)cc12)c1ccccc1 [Compound 78, (R)—N-hydroxy-6-(4-(1-phenylethylamino)-quinazolin-6-yloxy)hexanamide] |
| > 10 µM | COc1cc2ncnc(Nc3ccc(F)c(Cl)c3)c2cc1-c1ccc(C#CCCC(=O)NO)o1 [Compound 124] |
| 0.1 to 1 µM | C#Cc1cccc(Nc2ncnc3cc(OC)c(NC(=O)CCCC(=O)NO)cc23)c1 [Compound 42, N^1-(4-(3-ethynylphenylamino)-7-methoxyquinazolin-6-yl)-N^5-hydroxyglutaramide] |
| 0.1 to 1 µM | C#Cc1cccc(Nc2ncnc3cc(OC)c(OCCCCC(=O)NO)cc23)c1 [Compound 10, 5-(4-(3-Ethynylphenylamino)-7-methoxyquinazolin-6-yloxy)-N-hydroxypentanamide] |
| 1 to 10 µM | COc1cc2ncnc(Nc3ccc(F)c(Cl)c3)c2cc1OCCOc1ccc(CC(=O)NO)cc1 [Compound 91] |
| < 0.1 µM | O=C(CCCCCOc1ccc2ncnc(Nc3ccc(F)c(Cl)c3)c2c1)NO [Compound 17, 6-(4-(3-Chloro-4-fluorophenylamino)quinazolin-6-yloxy)-N-hydroxyhexanamide] |
| < 0.1 µM | COc1cc2ncnc(N[C@H](C)c3ccccc3)c2cc1OCCCCCC(=O)NO [Compound 77, (R)—N-hydroxy-6-(7-methoxy-4-(1-phenylethylamino)quinazolin-6-yloxy)-hexanamide] |

| IC50 | Compound |
| --- | --- |
| 0.1 to 1 µM | COc1cc2ncnc(Nc3ccc(F)c(Cl)c3)c2cc1OCCCCC(=O)NO [Compound 4] |
| 0.1 to 1 µM | COc1cc2ncnc(N[C@H](C)c3ccc(Cl)cc3)c2cc1OCCCCCCC(=O)NO [Compound 82, (R)-7-(4-(1-(4-chlorophenyl)ethylamino)-7-methoxyquinazolin-6-yloxy)-N-hydroxyheptanamide] |
| < 0.1 µM | COc1cc2ncnc(NCc3ccc(F)cc3)c2cc1OCCCCCCC(=O)NO [Compound 86, 7-(4-(4-fluorobenzylamino)-7-methoxyquinazolin-6-yloxy)-N-hydroxyheptanamide] |
| < 0.1 µM | C#Cc1cccc(Nc2ncnc3ccc(OCCCCCCC(=O)NO)cc23)c1 [Compound 24, 7-(4-(3-ethynylphenylamino)quinazolin-6-yloxy)-N-hydroxyheptanamide] |
| 1 to 10 µM | COc1cc2ncnc(Nc3ccc(F)c(Cl)c3)c2cc1NC(=O)CCCC(=O)NO [Compound 38, N^1-(4-(3-chloro-4-fluorophenylamino)-7-methoxyquinazolin-6-yl)-N^5-hydroxyglutaramide] |
| 1 to 10 µM | COc1cc2ncnc(Nc3ccc(F)c(Cl)c3)c2cc1C#CCCCC(=O)NO [Compound 139, 6-(4-(3-chloro-4-fluorophenylamino)-7-methoxyquinazolin-6-yl)-N-hydroxyhex-5-ynamide] |
| > 10 µM | COc1cc2ncnc(Nc3ccc(F)c(Cl)c3)c2cc1OCCNCc1ccc(C#CC(=O)NO)cc1 [Compound 121] |
| 1 to 10 µM | COCCOc1cc2ncnc(Nc3ccc(F)c(Cl)c3)c2cc1NC(=O)CCCC(=O)NO [Compound 68, N^1-(4-(3-chloro-4-fluorophenylamino)-7-(2-methoxyethoxy)quinazolin-6-yl)-N^5-hydroxyglutaramide] |
| < 0.1 µM | COc1cc2ncnc(NCc3ccc(F)c(F)c3)c2cc1OCCCCCCC(=O)NO [Compound 87, 7-(4-(3,4-difluorobenzylamino)-7-methoxyquinazolin-6-yloxy)-N-hydroxyheptanamide] |
| > 10 µM | C#Cc1cccc(Nc2ncnc3cc(OC)c(OCCC(=O)NO)cc23)c1 [Compound 8] |
| 1 to 10 µM | COc1cc2ncnc(Nc3ccc(F)c(Cl)c3)c2cc1C#CCCC(=O)NO [Compound 138] |
| > 10 µM | Nc1cc(Br)ccc1NC(=O)COc1ccc2ncnc(Nc3ccc(F)c(Cl)c3)c2c1 [Compound 45] |
| 0.1 to 1 µM | COc1cc2ncnc(Nc3ccc(F)c(Cl)c3)c2cc1OCCOc1ccc(/C=C/C(=O)NO)cc1 [Compound 66, (E)-3-(4-(2-(4-(3-chloro-4-fluorophenylamino)-7-methoxyquinazolin-6-yloxy)ethoxy)phenyl)-N-hydroxyacrylamide] |
| 0.1 to 1 µM | C#Cc1cccc(Nc2ncnc3cc(OC)c(OCCCC(=O)NO)cc23)c1 [Compound 9, 4-(4-(3-ethynylphenylamino)-7-methoxyquinazolin-6-yloxy)-N-hydroxybutanamide] |
| < 0.1 µM | C#Cc1cccc(Nc2ncnc3cc(OCCOC)c(OCCCCCCC(=O)NO)cc23)c1 [Compound 36, 7-(4-(3-Ethynylphenylamino)-7-(2-methoxyethoxy)quinazolin-6-yloxy)-N-hydroxyheptanamide] |
| 1 to 10 µM | O=C(CCOc1ccc2ncnc(Nc3ccc(F)c(Cl)c3)c2c1)NO [Compound 14] |
| > 10 µM | COc1cc2ncnc(Nc3ccc(F)c(Cl)c3)c2cc1OCCCCCCC(=O)N(C)O [Compound 94] |
| < 0.1 µM | COc1ccc([C@@H](C)Nc2ncnc3cc(OC)c(OCCCCCCC(=O)NO)cc23)cc1 [Compound 83, (R)—N-hydroxy-7-(7-methoxy-4-(1-(4-methoxyphenyl)ethylamino)quinazolin-6-yloxy)-heptanamide] |
| 0.1 to 1 µM | O=C(/C=C/c1ccc(OCCOc2ccc3ncnc(Nc4ccc(F)c(Cl)c4)c3c2)cc1)NO [Compound 63] |
| 0.1 to 1 µM | C#Cc1cccc(Nc2ncnc3cc(OC)c(NC(=O)CCCCC(=O)NO)cc23)c1 [Compound 43, N^1-(4-(3-ethynylphenylamino)-7-methoxyquinazolin-6-yl)-N^6-hydroxyadipamide] |
| 1 to 10 µM | COc1cc2ncnc(Nc3ccc(F)c(Cl)c3)c2cc1NC(=O)Nc1ccc(C(=O)NO)cc1 [Compound 93] |
| < 0.1 µM | COc1cc2ncnc(Nc3ccc(F)c(Cl)c3)c2cc1OCCCCCC(=O)NO [Compound 5] |
| < 0.1 µM | COc1cc2ncnc(NCc3cccc(Br)c3)c2cc1OCCCCCCC(=O)NO [Compound 89, 7-(4-(3-bromobenzylamino)-7-methoxyquinazolin-6-yloxy)-N-hydroxyheptanamide] |

Each compound was assayed against T1, HER2 (Homo sapiens, UniProt P04626) (assay: Radioisotope assay for HER2). Settings: read-out: HER2/ErB2 IC50 grading.
T1 construct: human HER2 amino acids 679-1255; host or cells: baculovirus in Sf9 insect cells
T1 sequence (P04626 679-1255): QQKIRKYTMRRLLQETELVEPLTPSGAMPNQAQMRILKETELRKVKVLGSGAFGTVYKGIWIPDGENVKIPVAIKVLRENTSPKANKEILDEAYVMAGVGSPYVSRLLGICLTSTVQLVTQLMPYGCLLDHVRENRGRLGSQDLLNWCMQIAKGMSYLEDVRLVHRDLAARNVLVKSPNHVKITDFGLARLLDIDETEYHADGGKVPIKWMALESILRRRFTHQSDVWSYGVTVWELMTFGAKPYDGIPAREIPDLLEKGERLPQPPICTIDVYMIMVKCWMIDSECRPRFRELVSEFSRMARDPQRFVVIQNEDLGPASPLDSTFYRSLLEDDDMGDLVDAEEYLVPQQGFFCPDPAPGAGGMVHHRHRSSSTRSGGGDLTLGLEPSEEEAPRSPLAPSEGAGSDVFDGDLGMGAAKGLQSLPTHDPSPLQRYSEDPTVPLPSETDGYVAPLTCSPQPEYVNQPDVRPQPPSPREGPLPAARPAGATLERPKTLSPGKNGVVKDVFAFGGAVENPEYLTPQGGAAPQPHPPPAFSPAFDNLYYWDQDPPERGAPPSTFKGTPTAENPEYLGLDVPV
Assay type: biochemical
Description: Protocol for Radioisotope Assay for HER2
10 nM HER2 and 0.1 mg/ml polyEY were placed in the reaction buffer and 2 mM MnCl2, 1 μM ATP and 1% DMSO final were added. The reaction mixture was incubated for 2 hours at room temperature.
MW=91.6 kDa. […] Enzyme is in 25 mM Tris-HCl, pH 8.0, 100 mM NaCl, 0.05% Tween-20, 50% glycerol, 10 mM reduced glutathione, and 3 mM DTT.

| IC50 | Compound |
| --- | --- |
| < 0.1 µM | COCCOc1cc2ncnc(Nc3ccc(F)c(Cl)c3)c2cc1NC(=O)CCCCCCC(=O)NO [Compound 70, N^1-(4-(3-chloro-4-fluorophenylamino)-7-(2-methoxyethoxy)quinazolin-6-yl)-N^8-hydroxyoctanediamide] |
